The values that follow are results of earlier work, collected in patent US12350336B2, “Photo-activatable compound, its preparation and therapeutic use” (City University of Hong Kong, priority 2021, dated 2025).

The structures appear in SMILES notation.

For this data set the following is noted: calibration standard value.

Regarding `CN(C)c1ccc2nc3ccc(=[N+](C)C)cc-3sc2c1` [MB, Methylene blue], the “ΦΔ (1O2 quantum yield) of calibration standard” value is 0.52.
